ChEMBL document CHEMBL6078680, “Improving the Stability and Anti-Infective Activity of Sea Turtle AMPs Using Multiple Structural Modification Strategies” (J Med Chem, 2024)
The source made the active and inactive calls. No cut-off for these calls is given here. Non-standard residues stand in square brackets, D forms with d. Residues, ends and D or L forms follow the SMILES beside them. Orn = NCCC[C@H](N)C(=O)O

Tests used:
Staphylococcus aureus [1] = experiment: Antimicrobial activity against Staphylococcus aureus ATCC 43300 assessed as reduction in microbial growth incubated for 18 hrs by broth microdilution method; assay type: functional
Acinetobacter baumannii [2] = experiment: Drug resistance, ratio of MIC for Acinetobacter baumannii ATCC1960 after 40 passages to MIC for Acinetobacter baumannii ATCC1960 during first exposure; assay type: functional
Cell membrane [3] = experiment: Disruption of cell membrane integrity in Staphylococcus aureus CMCC 26003 assessed as cell membrane damage at 5 times MIC measured after 30 mins by scanning electron microscopic analysis; assay type: subcellular
[4] = Acute toxicity in BALB/c mouse assessed as mortality at 15 mg/kg, iv measured for 24 hrs; assay type: organism-based; details: in vivo, read-out: Activity
Clostridium perfringens = experiment: Antimicrobial activity against Clostridium perfringens ATCC 13124 assessed as reduction in microbial growth incubated for 18 hrs by broth microdilution method; assay type: functional
Staphylococcus aureus [5] = experiment: Antibiofilm activity against Staphylococcus aureus CMCC 26003 assessed as biofilm eradication at 0.5 to 2 times MIC incubated for 24 hrs by crystal violet staining based analysis; assay type: functional
Peritoneal macrophage [6] = experiment: Antiinflammatory activity in mouse Peritoneal macrophage cells assessed as inhibition of LPS-induced IL-6 production at 20 microg/ml incubated for 6 hrs by ELISA analysis; assay type: functional, cell-based; details: dose 20.0 µg/ml
Salmonella enteritidis = experiment: Antimicrobial activity against Salmonella enterica subsp. enterica serovar Enteritidis ATCC 14028 assessed as reduction in microbial growth incubated for 18 hrs by broth microdilution method; assay type: functional
Enterococcus faecalis = experiment: Antimicrobial activity against Enterococcus faecalis ATCC 29217 assessed as reduction in microbial growth incubated for 18 hrs by broth microdilution method; assay type: functional
Escherichia coli [7] = experiment: Drug resistance, ratio of MIC for Escherichia coli ATCC 25922 after 40 passages to MIC for Escherichia coli ATCC 25922 during first exposure; assay type: functional
Staphylococcus aureus [8] = experiment: Antibiofilm activity against Staphylococcus aureus CMCC 26003 assessed as biofilm eradication incubated for 24 hrs by crystal violet staining based analysis; assay type: functional, organism-based
Staphylococcus aureus [9] = experiment: Antibacterial activity against Staphylococcus aureus CMCC 26003 assessed as increase in intracellular ROS production incubated for 1 hr by DCFH-DA staining based assay; assay type: functional, organism-based
Acinetobacter baumannii [10] = experiment: In vivo antibacterial activity against Acinetobacter baumannii ATCC19606 infected in BALB/c mouse assessed as reduction in bacterial load in liver at 15 mg/kg, ip measured after 3 hrs; assay type: functional, organism-based
Acinetobacter baumannii [11] = experiment: Antibiofilm activity against Acinetobacter baumannii ATCC 19606 assessed as inhibition of biofilm formation at 0.5 times MIC incubated for 48 hrs by crystal violet staining based analysis; assay type: functional
Escherichia coli [12] = experiment: Antibacterial activity against Escherichia coli ATCC 25922 assessed as increase in intracellular ROS production at 1 times MIC by DCFH-DA staining based assay; assay type: functional, organism-based
Escherichia coli [13] = experiment: Antibacterial activity against Escherichia coli ATCC 25922 at 1 times MIC in presence of exogenous DNA; assay type: functional, organism-based
Escherichia coli [14] = experiment: Antimicrobial activity against Escherichia coli CMCC44102 assessed as reduction in microbial growth incubated for 18 hrs by broth microdilution method; assay type: functional
Acinetobacter baumannii [15] = experiment: In vivo antibacterial activity against Acinetobacter baumannii ATCC19606 infected in BALB/c mouse assessed as survival at 15 mg/kg, ip administered for 12 hrs and measured on day 7; assay type: functional; details: ATCC19606, 168 h, time 7 day
[16] = Acute toxicity in BALB/c mouse assessed as effect on BUN level at 10 mg/kg, iv measured for 24 hrs; assay type: organism-based; details: in vivo
[17] = Acute toxicity in BALB/c mouse assessed as mortality at 10 mg/kg, iv measured for 24 hrs; assay type: organism-based; details: in vivo, read-out: Activity
Staphylococcus aureus [18] = experiment: Antipersister-activity against Staphylococcus aureus CMCC 26003 assessed as elimination of persister cells at 50 times MIC preincubated adherent persistent cells with colistin incubation for 24 hrs; assay type: functional
Staphylococcus aureus [19] = experiment: Bactericidal activity against Staphylococcus aureus CMCC 26003 assessed as bacterial eradication incubated at 0.5 hrs in presence of thiourea; assay type: functional, organism-based
[20] = Hemolytic activity at human Erythrocyte assessed as hemolysis at 100 microg/ml; assay type: toxicity, cell-based; details: erythrocytes, at 100 µg/mL, read-out: Activity
Peritoneal macrophage [21] = experiment: Antiinflammatory activity in mouse Peritoneal macrophage cells assessed as inhibition of LPS-induced TNF-alpha production at 20 microg/ml incubated for 6 hrs by ELISA analysis; assay type: functional, cell-based; details: dose 20.0 µg/ml
Staphylococcus aureus [22] = experiment: Antibiofilm activity against Staphylococcus aureus CMCC 26003 assessed as reduction in biofilm formation at 0.5 times MIC incubated for 24 hrs by crystal violet staining based analysis; assay type: functional; set-up: scale not given: the % may be the effect or the level left
Enterococcus faecium = experiment: Antimicrobial activity against Enterococcus faecium 34 assessed as reduction in microbial growth incubated for 18 hrs by broth microdilution method; assay type: functional
Escherichia coli [23] = experiment: Antibacterial activity against Escherichia coli ATCC 25922 assessed as increase in intracellular ROS production at 2 to 5 times MIC by DCFH-DA staining based assay; assay type: functional, organism-based
Acinetobacter baumannii [24] = experiment: In vivo antibacterial activity against Acinetobacter baumannii ATCC19606 infected in BALB/c mouse assessed as reduction in bacterial load at 15 mg/kg, ip; assay type: functional, organism-based; details: time 3.0 hrs
[25] = tested on: Staphylococcus epidermidis; experiment: Antimicrobial activity against Staphylococcus epidermidis assessed as reduction in microbial growth incubated for 18 hrs by broth microdilution method; assay type: functional
Acinetobacter baumannii [26] = experiment: In vivo antibacterial activity against Acinetobacter baumannii ATCC19606 infected in BALB/c mouse assessed as reduction in bacterial load in lung at 15 mg/kg, ip measured after 12 hrs; assay type: functional, organism-based
Acinetobacter baumannii [27] = experiment: In vivo antibacterial activity against Acinetobacter baumannii ATCC19606 infected in BALB/c mouse assessed as reduction in bacterial load in lung at 15 mg/kg, ip measured after 3 hrs; assay type: functional, organism-based
Pseudomonas aeruginosa = experiment: Antimicrobial activity against Pseudomonas aeruginosa CMCC10104 assessed as reduction in microbial growth incubated for 18 hrs by broth microdilution method; assay type: functional
Staphylococcus aureus [28] = experiment: Antimicrobial activity against Staphylococcus aureus CMCC 26003 assessed as reduction in microbial growth incubated for 18 hrs by broth microdilution method; assay type: functional
Acinetobacter baumannii [29] = experiment: Antimicrobial activity against Acinetobacter baumannii ATCC19606 assessed as reduction in microbial growth incubated for 18 hrs by broth microdilution method; assay type: functional
Acinetobacter baumannii [30] = experiment: Antibiofilm activity against Acinetobacter baumannii ATCC 19606 assessed as biofilm eradication incubated for 24 hrs by crystal violet staining based analysis; assay type: functional, organism-based
Acinetobacter baumannii [31] = experiment: In vivo antibacterial activity against Acinetobacter baumannii ATCC19606 infected in BALB/c mouse assessed as reduction in bacterial load in kidney at 15 mg/kg, ip measured after 3 hrs; assay type: functional, organism-based
[32] = Acute toxicity in BALB/c mouse assessed as effect on ALT level at 10 mg/kg, iv measured for 24 hrs; assay type: organism-based; details: in vivo
Cell membrane [33] = experiment: Disruption of cell membrane integrity in Escherichia coli ATCC 25922 assessed as cell membrane damage at 5 times MIC measured after 30 mins by scanning electron microscopic analysis; assay type: subcellular
Staphylococcus aureus [34] = experiment: Antimicrobial activity against Staphylococcus aureus CMCC 26003 assessed as fold increase in MIC incubated for 18 hrs in presence of CCCP; assay type: functional

CC[C@H](C)[C@H](NC(=O)[C@H](CCCN)NC(=O)[C@H](CO)NC(=O)[C@H](Cc1c[nH]cn1)NC(=O)[C@H](CCCN)NC(=O)[C@H](CC(C)C)NC(=O)[C@@H](NC(=O)[C@H](CCCN)NC(=O)CNC(=O)[C@H](CC(C)C)NC(=O)[C@H](CCC(N)=O)NC(=O)[C@H](CCCN)NC(=O)[C@H](CCCN)NC(=O)[C@@H](NC(=O)[C@H](CCCN)NC(=O)[C@H](CCCN)NC(=O)[C@@H](N)Cc1ccccc1)C(C)C)C(C)C)C(=O)N[C@H](C(=O)N[C@H](C(=O)NCC(=O)NCC(=O)N[C@@H](CCCN)C(=O)N[C@@H](CCSC)C(=O)N[C@@H](CCCN)C(=O)N[C@@H](Cc1ccccc1)C(=O)O)C(C)C)[C@@H](C)O (H-F[Orn][Orn]V[Orn][Orn]QLG[Orn]VL[Orn]HS[Orn]ITVGG[Orn]M[Orn]F-OH)
MIC (Staphylococcus aureus [1]): > 100 µg/mL
Ratio (Acinetobacter baumannii [2]): 1
Activity (Cell membrane [3]): Active
mortality at 24 h [4]: 0%
MIC (Clostridium perfringens): 18.8 µg/mL
Activity (Staphylococcus aureus [5]): 20%
Activity (Peritoneal macrophage [6]): Active
MIC (Salmonella enteritidis): 37.5 µg/mL
MIC (Enterococcus faecalis): 18.8 µg/mL
Ratio (Escherichia coli [7]): 1
Activity (Staphylococcus aureus [8]): Active
Activity (Staphylococcus aureus [9]): Dose-dependent-effect
Activity (Acinetobacter baumannii [10]): Active
inhibition (INH) (Acinetobacter baumannii [11]): 10%
Activity (Escherichia coli [12]): Active
Activity (Escherichia coli [13]): Active
MIC (Escherichia coli [14]): 18.8 µg/mL
survival at 15 mg/kg (Acinetobacter baumannii [15]): 40%
Activity [16]: Non-toxic
mortality at 24 h [17]: 0%
Activity (Staphylococcus aureus [18]): 50%
Activity (Staphylococcus aureus [19]): Active
hemolysis at 100 microg/ml [20]: < 5%
Activity (Peritoneal macrophage [21]): Active
Activity (Staphylococcus aureus [22]): 20%
MIC (Enterococcus faecium): 9.38 µg/mL
Activity (Escherichia coli [23]): Active
Activity (Acinetobacter baumannii [24]): Time-dependent-effect
MIC [25]: 18.8 µg/mL
Activity (Acinetobacter baumannii [26]): Active
Activity (Acinetobacter baumannii [27]): Active
MIC (Pseudomonas aeruginosa): 75 µg/mL
MIC (Staphylococcus aureus [28]): 75 µg/mL
MIC (Acinetobacter baumannii [29]): 9.38 µg/mL
Activity (Acinetobacter baumannii [30]): Active
Activity (Acinetobacter baumannii [31]): Active
Activity [32]: Non-toxic
Activity (Cell membrane [33]): Active
fold change (FC) (Staphylococcus aureus [34]): 32
